In patent US4882331A, “1-[(1,1-diphenyl)-1-alkenyl]piperazine derivatives, method of preparation and pharmaceutical compositions in which they are present” (priority 1987, dated 1989):

Experiments:
[1] = tested on: mouse muscle-relaxing action; assay: Muscle-relaxing action (traction test); assay type: in vivo; conditions: IP, doses in mg.kg^-1
Text: 3. Muscle-relaxing action (traction test)
This test assesses the presence or absence of redressments in a mouse brought up to a horizontal wire with its front paws.
The number of mice which are unable to grip the wire with one of their back paws within 5 s is noted.
A 50% effective dose can be calculated from the results obtained.

[2] = tested on: head twitches induced by 5-HTP; assay: Head twitches caused by 5-hydroxytryptophane (5-HTP); assay type: in vivo; conditions: Mus musculus; male mice; IP; 5-HTP 4 mg/kg; read-out: Antagonism of the head twitches induced by 5-HTP: decrease as from dose
Experimental: 1. Head twitches caused by 5-hydroxytryptophane (5-HTP)
(§1) Animals: male mice of 25±1 g
At time T-3 h, 100 mg/kg of pargyline were injected intraperitoneally.
(§2) At time T-30 minutes, the test product or distilled water (control) was injected intraperitoneally.
At time T=O, 5-HTP was injected intraperitoneally at a dose of 4 mg/kg.
All the jerky head movements made by the mice were observed over a 1-minute period every twelve minutes.
(§3) The mean number of movements was calculated and compared with the control group.

[3] = tested on: hyperthermia and clinical signs after tranylcypromine and tryptophan; assay: Grahame Smith's test; assay type: in vivo; conditions: rats; PO
Experimental: Animals: male rats of 200±10 g
At time T-30 minutes, the test product was administered intraperitoneally.
At time T=O, an MAOI was administered intraperitoneally (tranylcypromine, 20 mg/kg).
At time T+20 minutes, 250 mg/kg of tryptophan were administered (IP).
The temperature of the rats was recorded every 30 minutes for 200 minutes and the various clinical signs (motor agitation--hypersalivation--catatonia of the tail--hyperesthesia--thrashing of the tail, etc.) were noted on a scale of 0 to 1.
The mean temperatures and the average symptoms observed were calculated by comparison with the controls.

[4] = tested on: head twitches induced by 5-MeODMT; assay: Head twitches caused by 5-methoxydimethyltryptamine (5-MeODMT); assay type: in vivo; conditions: Mus musculus; male mice; IP; 5-MeODMT 4 mg/kg; read-out: Antagonism of the head twitches induced by 5-MeODMT: decrease as from dose
Experimental: 2. Head twitches caused by 5-methoxydimethyltryptamine (5-MeODMT)
as §1
At time T-3 hours, 100 mg/kg of pargyline were injected intraperitoneally.
as §2
At time T=O, 5-MeODMT was injected intraperitoneally at a dose of 4 mg/kg.
The number of head twitches was observed.
as §3

[5] = tested on: antiserotoninergic activity; assay: Antiserotoninergic activity tests, overall result; assay type: in vivo, mice, rats; conditions: overall statement on Table IV
Text: The compound of Example 1 was furthermore tested for its antiserotoninergic activity according to the following tests: […]

in vivo = conditions: mouse, in vivo, ip
Experimental: (§4) The toxicity of the compounds of the invention was determined by the following test:
(§5) Determination of the 50% lethal dose (LD50) in mice
(§6) The test product was administered intraperitoneally to groups of 5 male mice and 5 female mice at a rate of 0.1 ml per 10 g of body weight.

mice = assay: Determination of the 50% lethal dose (LD50) in mice; conditions: mice, IP
Experimental: as §4, §5, §6

yohimbine toxicity = assay: Yohimbine test (yohimbine toxicity); assay type: in vivo; conditions: 24 h; mouse; IP; yohimbine 25 mg/kg IP
Experimental: The test derivative is administered 30 min before the injection of yohimbine (25 mg/kg IP).
The number of deaths is counted 24 h after the injection of yohimbine.

[6] = tested on: penile erections and yawning; assay: Penile erections caused by apomorphine; assay type: in vivo; conditions: Rattus norvegicus; rats; IP; apomorphine 0.20 mg/kg; read-out: Antagonism of the penile erections and yawning: antagonism as from dose
Experimental: 3. Penile erections caused by apomorphine
The test product was administered parenterally or orally to rats, placed in a transparent cage, 30 minutes before the intraperitoneal injection of 0.20 mg/kg of apomorphine.
The number of penile erections was recorded over the 30 minutes following the injection of apomorphine.
A statistical study was carried out by comparison with the numbers of erections in the control rats.

central nervous system = assay: Pharmacological tests on the central nervous system, overall result; assay type: in vivo, mouse, rat; conditions: overall statement on Table III
Experimental: The pharmacological properties of the compounds of the invention were determined using the following tests: Experimental protocols The results obtained are collated in Table III below. […]

[7] = tested on: pain syndrome caused by phenylbenzoquinone (PBQ); assay: Peripheral analgesic activity (phenylbenzoquinone); assay type: in vivo; conditions: mouse; IP
Experimental: 5. Peripheral analgesic activity
A peritoneal pain is caused in mice by the intraperitoneal injection of phenylbenzoquinone (PBQ).
The test assesses the decrease in the pain syndrome, characterized by an abdominal twisting movement, which is caused by injecting the test derivative 30 min before the administration of PBQ.
The 50% effective dose is calculated from the percentage decrease in the pain syndrome relative to the control animals.

motor activity of mice = assay: Study of the spontaneous motility (photoelectric actimeter); assay type: in vivo; conditions: mouse, IP; for Activity (spontaneous motility): doses in mg.kg^-1
Experimental: 1. Study of the spontaneous motility
The motor activity of mice was determined using a Boissier and Simon photoelectric actimeter.
The mice are placed in groups of five in a box closed with a lid, through which two perpendicular rays of light pass; the mice cut across these rays as they move.
These movements are counted by a meter, which is read 30 min and 1 h after the administration of the test derivative.

SMILES | LD50 (in vivo) | FIDUCIAL LIMITS of LD50, CALCULATION ACCORDING TO LITCHFIELD and WILCOXON (mice) | ED50 (yohimbine toxicity) | ED50 [7] | further results
O=C(O)CCCCCCNC1c2ccccc2CCc2ccccc21 [AMINEPTINE] | – | – | – | – | Muscle-relaxing action, traction test [1]: No action
Fc1ccc(OCCN2CCN(CCC=C(c3ccccc3)c3ccccc3)CC2)cc1 [Compound 1, 1-[(1,1-diphenyl)-1-buten-4-yl]-4-[1-(2-(4-fluorophenoxy)ethyl]piperazine dimethanesulfonate] | 231 mg/kg | 195 to 274 mg/kg | 31 mg/kg | 1.5 mg/kg | minimal effective dose [2]: ≥ 18.8 mg/kg; Grahame Smith's test: decrease at dose [3]: 37.5 mg/kg; minimal effective dose [4]: ≥ 6.25 mg/kg; antiserotoninergic activity [5]: possesses an antiserotoninergic activity; minimal effective dose [6]: ≥ 6.25 mg/kg; antidepressant / central nervous system activity (central nervous system): antidepressants with a greater activity than the known antidepressants
Cc1ccccc1OC(CCN1CCN(CCC=C(c2ccccc2)c2ccccc2)CC1)c1ccccc1 (stereo not drawn) [Compound 4] | 386 mg/kg | 279 to 453 mg/kg | – | 1.5 mg/kg | Activity (spontaneous motility) (motor activity of mice): Increase
Fc1ccc(OC(CCN2CCN(CCC=C(c3ccccc3)c3ccccc3)CC2)c2ccccc2)cc1 (stereo not drawn) [Compound 5] | 314 mg/kg | 234 to 421 mg/kg | – | – | –
Fc1ccc(OCCCN2CCN(CCC=C(c3ccccc3)c3ccccc3)CC2)cc1 [Compound 6] | 247 mg/kg | 206 to 296 mg/kg | 25 mg/kg | – | –
O=C(CCCN1CCN(CCC=C(c2ccccc2)c2ccccc2)CC1)c1ccc(F)cc1 [Compound 7] | – | – | > 25 mg/kg | – | ED50 (motor activity of mice): 7.5 mg/kg
Fc1ccc(OCCCCN2CCN(CCC=C(c3ccccc3)c3ccccc3)CC2)cc1 [Compound 8] | 199 mg/kg | 172 to 229 mg/kg | > 25 mg/kg | 6.25 mg/kg | –
Cc1ccc(OCCCCN2CCN(CCC=C(c3ccccc3)c3ccccc3)CC2)cc1 [Compound 14] | – | – | > 25 mg/kg | 2.5 mg/kg | Activity (spontaneous motility) (motor activity of mice): Decrease
Fc1ccc(OCCN2CCN(CCCC=C(c3ccccc3)c3ccccc3)CC2)cc1 [Compound 16] | – | – | – | 4.5 mg/kg | –
Fc1ccc(OCCN2CCN(CCC=C(c3ccccc3)c3ccc(F)cc3)CC2)cc1 [Compound 17] | – | – | > 25 mg/kg | 5.2 mg/kg | –
CN(C)CCCN1c2ccccc2CCc2ccccc21 [IMIPRAMINE] | – | – | – | – | Muscle-relaxing action, traction test [1]: No action
